According to patent publication US6825192B1, “Heterodiazinone derivatives” (Eisai Co., Ltd., priority 1999, dated 2004):
Structures can show the parent of a compound that is named as a salt.

How the values were obtained:
AMPA receptor channels = experiment: Inhibitory action on AMPA-inducing electric current in nerve cell membrane (patch clamp); type: cell-based; conditions: cultured rat cerebral cortex nerve cells, membrane potential -70 mV, 10 μM AMPA
Procedure: The action on AMPA receptor channels was examined by a patch clamp method.
(§1) The cerebral cortex was excised from the brain of a rat on day 18 after birth and treated with trypsin and DNase, whereby the cells were dispersed. The cells were allowed to float on DMEM containing 10% serum, inoculated into a culture bottle, and their astrocytes were grown. The astrocytes were re-dispersed with trypsin and inoculated onto each well on a 12-well plate.
After it was confirmed that the bottom of each well was completely covered with the astrocytes after culture for 1 week, a cover glass treated with poly-1-lysine was placed thereon, and cerebral cortex nerve cells dispersed in the same manner as above were further inoculated thereon. After 24 hours, the medium was exchanged with fresh one, and after culture for further 1 week, the medium was exchanged with a medium containing 1 μM MK-801.
The membrane potential of the cerebral cortex nerve cells cultured for 9 days or more was fixed at −70 mV by a patch clamp method, and after a test compound was added, 10 μM AMPA was applied as a stimulus to the cells. By using, as the control, electric current flowing via the membrane into the cells in the absence of the test compound, the action of the compound in Example 1 was examined.

male ddy mice = experiment: Inhibitory action on AMPA-inducing spasm; type: in vivo; conditions: intravenous, 5 minutes before 1.5 nmol AMPA into the ventricle
Procedure: A test compound or its solvent only was intravenously injected into 4-week-old male ddy mice, and 5 minutes later, 1.5 nmol AMPA was administered into the ventricle thereby inducing spasm. The action of the test chemical was judged by the presence or absence of spasm, and its dose causing 80% or more inhibition was regarded as an effective dose.

AMPA receptor = experiment: Inhibitory action on AMPA-inducing inflow of calcium into nerve cells (Fura2-AM); type: cell-based; conditions: rat cerebral cortex nerve cells on astrocytes, 1 μM MK-801, stimulated by 2 μM AMPA, fluorescence 340/380 nm
Procedure: as §1, with “96-well” for “12-well”, “plate. After it was confirmed that the bottom of each well was completely covered with the astrocytes after culture for 1 week, cerebral cortex nerve cells dispersed in the same manner as above were inoculated thereon. After 24 hours, the medium was exchanged with fresh one, and after culture for further 1 week, the medium was exchanged with a medium containing 1 μM MK-801.” for “plate.”
The inflow of calcium into the cells was measured using Fura2-AM that is a calcium-sensitive fluorescent pigment. By treating the cells with a Fura2-AM-containing medium for 1 hour, Fura2-AM was incorporated into the cells, and the medium was exchanged with a Tyrode solution containing 1 μM MK-801. After a test compound was added, the cells were stimulated by 2 μM AMPA. The change in the amount of calcium flowing into the cells was measured as a change in the fluorescence intensity at wavelengths of 340/380 nm. The effect of a test compound was evaluated where the reaction caused by AMPA added to the Tyrode solution free of the test compound was used as the control.

male SD rat = experiment: Reduction of infarct in a model with occlusion of midbrain/cerebrum arteries; type: in vivo; conditions: from 30 min after occlusion, 6 h, vs solvent only
Procedure: The cervical region of a 8-week-old male SD rat was cut across the midline, and a right carotid artery was removed. An operation nylon thread (standard 4-0) was inserted into an external carotid artery, and blood stream in the midbrain/cerebrum arteries in the skull was occluded by the nylon thread, whereby a model with occlusion of midbrain/cerebrum arteries was prepared. Thirty minutes after the midbrain/cerebrum arteries were occluded, a test compound or its solvent only was once administered intravenously into the rat, and thereafter, it was continuously administered intravenously at a constant injection rate. The body temperature was controlled at 37.5 to 38.0° from the initiation of administration to the termination of administration. Six hours after the initiation of administration, the brain was excised from the rat and immediately cut into brain sections of 2 mm in thickness, which were then stained with 2% TTC solution. An image of these stained sections was incorporated into NIH image and the area of non-stained portions showing infarct loci was measured, and thereafter, the volume of the infarct loci was calculated.

[1] = test system: rat model with cerebral ischemia; conditions: Le Peillet et al., Brain Research, 571, 115, 1992; cited from earlier work
[2] = test system: experimental animal model with cerebral ischemia; conditions: Sheardown et al., Science, 247, 571, 1990; cited from earlier work

Structure (SMILES)	IC50 (AMPA receptor channels)	effective dose (dose causing 80% or more inhibition of spasm) (male ddy mice)	IC50 (AMPA receptor)	reduction of infarct loci in the cerebral cortex (male SD rat; single i.v. 6.6 mg/kg then continuous i.v. 10 mg/kg/h)	reduction of infarct loci in the cerebral cortex (male SD rat; single i.v. 20 mg/kg then continuous i.v. 30 mg/kg/h)	nerve-protecting action in rat model with cerebral ischemia [1]	effect in experimental animal model with cerebral ischemia [2]
O=C1COC(c2ccccn2)=NN1c1ccccc1 [Example 1, 2-(2-Pyridyl)-4-phenyl-4H-1,3,4-oxadiazine-5(6H)-one hydrochloride]	12.3 µM	30 mg/kg	11.8 µM	54%	74%		
CC1=NN=C(c2ccc(N)cc2)c2cc3c(cc2C1)OCO3 [GYKI 52466, 1-(amino-phenyl)-4-methyl-7,8-methylenedioxy-5H-2,3-benzoazepine hydrochloride, reference compound]			9.02 µM			exerts a nerve-protecting action	
NS(=O)(=O)c1cccc2c1c([N+](=O)[O-])cc1nc(O)c(O)nc12 [NBQX, 2,3-dihydroxy-6-nitro-7-sulfamoyl-benzo[f-]quinoxaline]							effective
